From patent US10676527B2, “Methods and compositions for modulation of blood-neural barrier” (Ludwig Institute for Cancer Research Ltd, priority 2006, dated 2020)
Where a name gives a salt, the structure may show the parent alone.

Experiments:
BBB = test: Evans Blue extravasation (BBB opening) after intraventricular injection; format: in vivo; conditions: Example 1, FIG. 1; C57BL6 mice, 2 μl intraventricular, 3 μM, 1 hour after injection
Method: (§1) Wild type C57BL6 mice (10 Week old) were injected intraventricularly into the dorsal third ventricle with 2 μl of PBS, active PDGF-AA, PDGF-BB (both from Preprotech Inc.) and PDGF-CC (see below) (3 μM). Evans Blue was given intravenously immediately after the injection. One hour after the injection, the animals were perfused with PBS and the brain tissue was removed and processed for Evans Blue extravasation.
as §1, with “of either” for “of”, “PBS, wild type murine tPA (3 μM),” for “PBS,”, “active” for “active PDGF-AA, PDGF-BB (both from Preprotech Inc.) and”, “(3 μM), or wild type murine tPA (3 μM) plus active PDGF-CC” for “(see below)”
Wt C57BL6 mice (10 Week old) were injected intraventricularly with 3 μl of either PBS, wild type murine tPA (3 μM), wild type murine tPA (3 μM) with rabbit anti-PDGF-CC (150 μg/ml). Evans Blue was given intravenously immediately after the injection. One hour after the injection, the animals were perfused with PBS and the brain tissue was removed and processed for Evans Blue extravasation.

PDGFR-α = PDGFR-α (Homo sapiens, UniProt P16234); conditions: known from the art; cited from earlier work
Sequence of PDGFR-α (P16234 24-1089, species assumed): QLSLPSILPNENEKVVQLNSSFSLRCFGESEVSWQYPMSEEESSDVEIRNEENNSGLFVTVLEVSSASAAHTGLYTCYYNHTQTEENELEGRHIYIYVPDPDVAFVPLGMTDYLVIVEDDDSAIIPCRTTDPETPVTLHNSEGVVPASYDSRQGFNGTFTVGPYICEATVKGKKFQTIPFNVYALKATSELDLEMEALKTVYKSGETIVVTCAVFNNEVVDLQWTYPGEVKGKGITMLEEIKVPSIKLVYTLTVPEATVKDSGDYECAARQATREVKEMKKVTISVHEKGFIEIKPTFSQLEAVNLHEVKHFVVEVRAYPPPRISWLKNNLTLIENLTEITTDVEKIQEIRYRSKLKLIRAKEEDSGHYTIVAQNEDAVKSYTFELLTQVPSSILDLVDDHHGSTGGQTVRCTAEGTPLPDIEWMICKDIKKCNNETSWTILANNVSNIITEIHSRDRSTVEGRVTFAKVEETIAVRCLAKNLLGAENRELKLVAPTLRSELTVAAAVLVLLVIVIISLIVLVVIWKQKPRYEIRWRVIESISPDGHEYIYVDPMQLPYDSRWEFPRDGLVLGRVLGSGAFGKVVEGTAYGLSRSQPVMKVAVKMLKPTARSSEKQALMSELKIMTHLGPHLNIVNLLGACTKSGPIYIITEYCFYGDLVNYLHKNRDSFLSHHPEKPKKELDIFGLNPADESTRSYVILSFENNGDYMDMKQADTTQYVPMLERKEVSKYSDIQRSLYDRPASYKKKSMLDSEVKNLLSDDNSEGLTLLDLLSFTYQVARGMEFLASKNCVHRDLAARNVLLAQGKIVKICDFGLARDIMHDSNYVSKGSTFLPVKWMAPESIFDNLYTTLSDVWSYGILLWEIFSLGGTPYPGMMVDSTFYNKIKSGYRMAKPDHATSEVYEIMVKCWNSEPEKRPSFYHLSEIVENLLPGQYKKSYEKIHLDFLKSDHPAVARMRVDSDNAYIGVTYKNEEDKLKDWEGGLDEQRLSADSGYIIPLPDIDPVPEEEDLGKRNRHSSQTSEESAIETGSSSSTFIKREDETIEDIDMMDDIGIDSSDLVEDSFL

| Molecule | vascular permeability / opening of the BBB (Evans Blue extravasation) (BBB) | inhibition of PDGFR-α (PDGFR-α) |
| --- | --- | --- |
| PDGF-AA: active platelet-derived growth factor AA dimer (from Preprotech Inc.) | induce increased vascular permeability |  |
| Cc1ccc(NC(=O)c2ccc(CN3CCN(C)CC3)cc2)cc1Nc1nccc(-c2cccnc2)n1 [Gleevec®, imatinib mesylate] |  | at least partially inhibit |
